# Measurements as given in US20230277553A1, “THERAPEUTIC COMPOSITION OF CURE-PRO COMPOUNDS FOR TARGETED DEGRADATION OF BET DOMAIN PROTEINS, AND METHODS OF MAKING AND USAGE” (CORNELL UNIVERSITY, priority 2020, published 2023).
# Entries after “also recorded” stand apart in the source; their conditions may differ.
# What was measured:
# [1] = tested on: MV-4-11 cells; assay: CellTiter-Glo cell viability, MV-4-11 cells; assay type: cell-based
# Procedure: CellTiter-Glo® 2.0 Cell Viability Assay (Promega) was carried out following the manufacturer's recommendations. Cells were seeded at a density of 1000 cells/well in a white 96 well plates (Corning, #3917) in a total volume of 100 μl with respective monomers, combinations of BRD ligands together with E3 ligase ligands or vehicle control treatment. After a 72 h incubation, 100 ul of the CellTiter-Glo® substrate was added per well and luminescence was read on a Spectramax M5 (Molecular Devices). Dose-response curves were generated using Graphpad Prism software.
# MV-4-11 cells (5×104) were treated for 24 hours with the sample compounds solubilized in DMSO. The compounds were added at 1 nM-100 μM each. Cellular viability was determined using the CellTiter-Glo® Luminescent Cell Viability Assay (Promega) described above. FIGS. 19-22 depict the CURE-PRO-mediated loss of cellular viability for BRD monomers (JQ1 derivatives comprising of catechol linkers), and CRBN ligand, 8049 (pomalidomide derivatives comprising boronic acid linkers) combined in a 1:1 ratio.
# MV-4-11 cells (1×104) were treated for 72 hours with the compounds solubilized in DMSO. Compounds were added at 10 nM-100 μM each. Cellular viability was determined using the CellTiter-Glo® Luminescent Cell Viability Assay (Promega) described above. FIGS. 47-54 depict the CURE-PRO-mediated loss of cellular viability for BRD monomers (JQ1 derivatives comprising of boronic acid linkers), and CRBN ligands, 8046, 8047 and 8066 (pomalidomide derivatives comprising diol linkers) combined in a 1:1 ratio.
# [2] = molecular target: BRD4 (Homo sapiens, UniProt O60885); assay: CURE-PRO-mediated BRD4 degradation with MDM2 ligands, Western blot, HCT116 cells; assay type: cell-based; design: endogenous in cells; details: for BRD4 degradation, in combination with MDM2 ligands 8310 and 8312 (Western blot): HCT116, 24 h, 1:1, 10 μM; for Selectivity of degradation within the BRD protein family, with MDM2 ligands: HCT116, Western blot, with 8310 / 8312
# Source text: (§1) Anti-BRD4 (13440, 1:1,000 dilution for Western Blot and 1:25 dilution for ProteinSimple); Anti-BRD2 (5848 1:1,000 dilution for Western Blot and 1:25 dilution for ProteinSimple); β-Actin (3700, 1:2,000 dilution for Western Blot), β-Actin (4970, 1:50 dilution for ProteinSimple) anti-mouse IgG-HRP, and anti-rabbit IgG-HRP antibodies were purchased Cell Signaling Technology. Anti-GAPDH (600-401-A33, 1:100 dilution for ProteinSimple) was purchased from Rockland Immunochemicals, Inc. Anti-BRD3 (sc-81202, 1:200 dilution for Western Blot) was purchased from Santa Cruz Biotechnology.
# HeLa, MCF7, or HCT116 cells (2.5-3×10^6) were treated for 24 hours with the indicated compounds solubilized in DMSO. The cells were washed in ice-cold PBS and were then lysed in RIPA lysis buffer (150 mM NaCl, 5 mM EDTA, 1% NP-40, 0.5% sodium deoxycholate, 0.1% SDS, 50 mM Tris, pH 8.0.) with Roche protease inhibitor complete cocktail and phosphatase inhibitors (10 mM sodium fluoride, 10 mM sodium pyrophosphate, 1 mM sodium orthovanadate and 20 mM β-glycerophosphate). The total protein concentrations were determined by Bradford Protein Assay and 10-20 μg of protein was loaded onto 4-15% Tris-Glycine gradient gels (Biorad). After standard gel electrophoresis, the separated proteins were transferred to PVDF membrane by wet transfer. The immunoblots were then blocked for 1 hour in 5% skim milk in TBST or 5% BSA in TBST, according to manufacturer's instructions, before an overnight incubation at 4° C. with indicated antibodies and membranes. Membranes were then incubated with the appropriate horseradish peroxidase-conjugated secondary antibodies (1:5,000 dilution) for 1 h at room temperature and the bands were visualized using the Clarity Max Western ECL Substrate (Biorad) and the ChemiDoc Imaging System (Biorad). Signal was detected with ECL Western Blotting Substrate (Pierce) and X-ray film processed with a Konica SRX-101 X-ray film processor or captured by Bio-Rad's Chemidoc Imaging system.
# HCT116 cells (3×10^6) were treated for 24 hours with the compounds solubilized in DMSO. Compounds were added at 100 nM-10 μM each. Standardized protein samples were electrophoresed and imaged as described in the Immunoblotting section above. FIGS. 64 and 65 depict the concentration-dependence of CURE-PRO-mediated BRD2 and BRD3 degradation using MDM2 ligands.
# [3] = molecular target: T1, BRD2 (Homo sapiens, UniProt P25440); assay: CURE-PRO-mediated BRD2 degradation with MDM2 ligands, Western blot, HCT116 cells; assay type: cell-based; details: HCT116, 24 h, 1:1, 10 μM
# T1 construct: endogenous in cells; host or cells: HCT116
# Source text: as §1
# HeLa, MCF7, or HCT116 cells (2.5-3×10^6) were treated for 24 hours with the indicated compounds solubilized in DMSO. The cells were washed in ice-cold PBS and were then lysed in RIPA lysis buffer (150 mM NaCl, 5 mM EDTA, 1% NP-40, 0.5% sodium deoxycholate, 0.1% SDS, 50 mM Tris, pH 8.0.) with Roche protease inhibitor complete cocktail and phosphatase inhibitors (10 mM sodium fluoride, 10 mM sodium pyrophosphate, 1 mM sodium orthovanadate and 20 mM β-glycerophosphate). The total protein concentrations were determined by Bradford Protein Assay and 10-20 μg of protein was loaded onto 4-15% Tris-Glycine gradient gels (Biorad). […] Signal was detected with ECL Western Blotting Substrate (Pierce) and X-ray film processed with a Konica SRX-101 X-ray film processor or captured by Bio-Rad's Chemidoc Imaging system. […]
# [4] = tested on: SLC19A1; assay: Suppression of c-MYC downstream target gene SLC19A1, RT-PCR (Cells-to-Ct), HeLa cells; assay type: cell-based, Human; details: 24 h, 10 μM each
# Procedure: The suppression of the expression of the downstream c-MYC target, SLC19A1, was measured by RT-PCR using Power SYBR© Green Cells-to-Ct™ Kit (Life Technologies). Adherent cells were plated on 96 well plates at 5,000 cells per well were treated for 24h with monomer compounds and compounds capable of reversible interactions (1 nM-100 μM). Cells were subsequently washed in ice-cold PBS processed according to the manufacturer's instructions. Quantitative real-time PCR was performed using a ViiA™ 7 Real-time PCR System (Applied Biosystems, Foster City, Calif., USA). GAPDH and ACTB served as internal controls. The primers used were (5′-3′): GAPDH-F: AGCCACATCGCTCAGACAC (SEQ ID NO:9), GAPDH-R: GCCCAATACGACCAAATCC (SEQ ID NO:10), ACTB —F: CCAACCGCGAGAAGATGA (SEQ ID NO: 11), ACTB -R: […] (SEQ ID NO: 12), SLC19A1-F: […] (SEQ ID NO:13), SLC19A1-R: […] (SEQ ID NO: 14).
# HeLa cells (1×104) were treated for 24 hours in 96 well plates with the compounds solubilized in DMSO. Compounds were added at 10 μM each and RNA expression measured by the Cells-to Ct method described above (Thermofisher). CURE-PRO-mediated suppression of the downstream target gene of c-MYC, SLC19A1, after BRD4 degradation was evident in cells treated with the combination of BRD-N25 and 8310 or 8312 (FIG. 66) and BRD-N39 and 8310 and 8312 (FIG. 67) as indicated by a rightward shift in the curve and in increase in the Ct values.
# T1 sequence (P25440 whole entry): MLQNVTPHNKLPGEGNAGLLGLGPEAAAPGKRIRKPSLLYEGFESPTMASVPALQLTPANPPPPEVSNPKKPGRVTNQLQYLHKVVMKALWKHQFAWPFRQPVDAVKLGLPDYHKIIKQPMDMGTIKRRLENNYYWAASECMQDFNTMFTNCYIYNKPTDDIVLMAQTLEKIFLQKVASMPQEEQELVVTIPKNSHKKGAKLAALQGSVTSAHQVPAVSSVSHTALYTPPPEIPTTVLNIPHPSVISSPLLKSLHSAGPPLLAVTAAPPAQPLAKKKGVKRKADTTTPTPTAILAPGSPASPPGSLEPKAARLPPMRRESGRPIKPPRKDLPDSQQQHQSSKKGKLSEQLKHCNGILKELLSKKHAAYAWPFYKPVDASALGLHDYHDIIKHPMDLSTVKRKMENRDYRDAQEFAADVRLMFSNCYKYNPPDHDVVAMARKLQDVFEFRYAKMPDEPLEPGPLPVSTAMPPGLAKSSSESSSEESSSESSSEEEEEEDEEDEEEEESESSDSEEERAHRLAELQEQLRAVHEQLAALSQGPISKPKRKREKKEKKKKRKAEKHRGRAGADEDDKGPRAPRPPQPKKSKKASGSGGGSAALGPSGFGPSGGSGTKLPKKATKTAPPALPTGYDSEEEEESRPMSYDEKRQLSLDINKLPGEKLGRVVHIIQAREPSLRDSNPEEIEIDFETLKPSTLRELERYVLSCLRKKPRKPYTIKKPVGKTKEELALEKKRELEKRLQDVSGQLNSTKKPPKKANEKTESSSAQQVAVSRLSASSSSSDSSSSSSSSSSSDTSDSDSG
Structure (SMILES),"Loss of cellular viability / toxicity, cotreated with cereblon ligands 8046, 8047 and 8066 vs monomers alone ([1]; MV-4-11, 72 hours, 1:1, 10 nM-100 μM each)","BRD4 degradation, in combination with MDM2 ligands 8310 and 8312 (Western blot) [2]","Selectivity of degradation within the BRD protein family, with MDM2 ligands [2]","BRD2 degradation, in combination with MDM2 ligands 8310 and 8312 [3]","Loss of cellular viability / toxicity, co-dosed with CRBN ligand 8049 ([1]; MV-4-11, 24 hours, 1:1 with 8049, 1 nM-100 μM each)","Suppression of SLC19A1 expression, combination with 8310 [4]","Suppression of SLC19A1 expression, combination with 8312 [4]"
"CCNC(=O)C[C@@H]1N=C(c2ccc(Cl)cc2)c2cc(OCCCCC(=O)Nc3cccc(B(O)O)c3)ccc2-n2c(C)nnc21 [BRD-E20, (3-(5-(((4S)-6-(4-chlorophenyl)-4-(2-(ethylamino)-2-oxoethyl)-1-methyl-4H-benzo[f][1,2,4]triazolo[4,3-a][1,4]diazepin-8-yl)oxy)pentanamido)phenyl)boronic acid]",reduced viability; also recorded: increased toxicity,,,,,,
CCNC(=O)C[C@@H]1N=C(c2ccc(Cl)cc2)c2cc(OCCNC(=O)c3cccc(O)c3O)ccc2-n2c(C)nnc21 [BRD-N25],,caused BRD4 degradation; also recorded: Degradation is evident,some selectivity for BRD3 and BRD4 over BRD2 for 8310,BRD2 to a lesser extent; also recorded: Degradation is evident,concentration-dependent loss in cellular viability; also recorded: increased toxicity,evident,evident; also recorded: suppressed more substantially
"CCNC(=O)C[C@@H]1N=C(c2ccc(Cl)cc2)c2cc(OCCOCCNC(=O)c3cccc(O)c3O)ccc2-n2c(C)nnc21 [BRD-N39, N-(2-(2-(((4S)-6-(4-chlorophenyl)-4-(2-(ethylamino)-2-oxoethyl)-1-methyl-4H-benzo[f][1,2,4]triazolo[4,3-a][1,4]diazepin-8-yl)oxy)ethoxy)ethyl)-2,3-dihydroxybenzamide]",,caused BRD4 degradation; also recorded: Degradation is evident,some selectivity for BRD4 over BRD2 and BRD3,BRD2 to a lesser extent; also recorded: Degradation is evident,,evident; also recorded: suppression to levels comparable to that of JQ1 treatment,Complete suppression of SLC19A1 was evident; also recorded: completely suppressed
